Source: paper PMC12454639, “Direct disassembly of α-syn preformed fibrils into α-syn monomers by an all-D-peptide” (NPJ Parkinson's Disease, 2025)
“Also recorded” adds a separate entry of the source. Square brackets hold non-standard residues; d marks the D form. Peptide text beside a SMILES is read from it.

How the values were obtained:
α-syn monomer = assay: De novo ThT aggregation assay (10 µM α-syn); format: biochemical; conditions: 37 °C, n = 5
Description: The Thioflavin T (ThT) assay is commonly used for the visualization of α-syn fibrilization, since the dye ThT is able to bind to the amyloidogenic cross-β-sheet proportions of fibril structures. Recombinant α-syn was thawed on ice and centrifuged for 30 min at 21,000 × g and 4 °C. The concentration of the supernatant was determined as described previously. Lyophilized D-peptides were thawed at RT for 1 h and dissolved in 500 µl PBS pH 7.4. After centrifugation for 30 min at 21,000 × g the supernatant concentration was determined by UV–vis using the corresponding extinction coefficient at A280. […] ThT fluorescence was monitored with bottom optics at λex = 448 nm and λem = 482 nm in a fluorescence plate reader with orbital averaging on 3 mm (Clariostar or Polarstar Optima, BMG labtech, GE). […]
ThT assay was used for different purposes. […] Lag-time and t½ were calculated as described previously. […]
ThT fluorescence progression was measured in a 96-well non-binding half-area plate (Corning, USA) with a FLUOStar platereader (BMG labtech, GE) at λex = 448 nm and λem = 482 nm. […] 10 µM α-syn monomer was incubated with 5, 10 and 20 µM peptide at 37 °C, adding one borosilicate glass bead per well (d = 3.0 mm, Hilgenberg, GE) with continuous orbital shaking at 300 rpm in between reads. […]
For each fit, x ½, lag-time and steady state response was determined in order to calculate their mean value for each condition. […]

α-syn (1–108) = assay: De novo ThT aggregation of 1-108 truncated α-syn; format: biochemical; conditions: 25 µM 1-108 α-syn, equimolar peptide
Description: ThT assay was used for different purposes. […] Lag-time and t½ were calculated as described previously. […] Measurements were taken every 5 min (n = 3).
Aggregation curves were fitted with a symmetric Boltzmann fit and the steady state signal was normalized to 1.

small α-syn PFF seeds = assay: Protein quantification after centrifugation (precipitation of small α-syn PFF); format: physicochemical; conditions: as DLS samples (200 nM PFF + 500 nM SVD-1a), 0, 20, 72 h at 37 °C, centrifuged 21,000×g 30 min, Micro-BCA, n = 3
Description: Measurements were performed using a SpectroSize 300 131 (XtalConcepts, GE) instrument and a sample volume of 1 ml in a sealed quartz cuvette (Hellma Group, GE). Samples were incubated in PBS pH 7.4 at 37 °C under quiescent conditions. Prior to measurements, all samples were centrifuged at 21,000×g for 30 min at 4 °C to remove potential impurities from the solution. For time-dependent DLS measurements, data points were recorded every 60 s. Diffusion coefficients were obtained from analysis of the decay of the scattered intensity autocorrelation function and were used to determine apparent hydrodynamic radii via the Stokes-Einstein equation. Kinetic fitting for the degradation of small α-syn PFF seeds was performed with the “SVD-1a + small α-syn PFF” sample using the “single-phase exponential decay function” of GraphPad Prism 10 (GraphPad Software Inc., USA), considering only particle sizes in the range of 1–100 nm with an amplitude > 0.2. […] Protein quantification after centrifugation was performed by incubating identical samples as in the DLS measurements with additional compound and buffer controls in low-binding reaction tubes at 37 °C under quiescent conditions (n = 3). […] Protein quantification of pellet and supernatant was performed using a Micro-BCA kit following the manufacturer’s instructions (Thermo Fisher Scientific, USA). […]

SMILES | inhibition of de novo aggregation (α-syn monomer; 10 µM α-syn, 5, 10 and 20 µM peptide, glass bead, continuous shaking 300 rpm) | inhibition of α-syn (1–108) aggregation (α-syn (1–108)) | inhibition of de novo aggregation at twofold molar excess (α-syn monomer; 10 µM α-syn, 20 µM peptide) | precipitation of small α-syn PFF seeds (small α-syn PFF seeds)
CC[C@@H](C)[C@@H](NC(=O)[C@@H](Cc1c[nH]cn1)NC(=O)[C@@H](CCC(=O)O)NC(=O)[C@@H](CCC(N)=O)NC(=O)[C@@H](Cc1c[nH]c2ccccc12)NC(=O)[C@@H](Cc1ccc(O)cc1)NC(=O)[C@H](NC(=O)[C@@H](CCC(=O)O)NC(=O)[C@@H](Cc1c[nH]cn1)NC(=O)[C@H](NC(=O)[C@H]1CCCN1C(=O)[C@@H](CCSC)NC(=O)[C@H](N)CCCCN)[C@H](C)O)[C@H](C)O)C(=O)N[C@H](Cc1c[nH]c2ccccc12)C(=O)N[C@H](Cc1c[nH]cn1)C(=O)N[C@H](C)C(N)=O [SVD-1] (H-[dK][dM][dP][dT][dH][dE][dT][dY][dW][dQ][dE][dH][dI][dW][dH][dA]-NH2) | concentration-dependent delay of aggregation onset as well as by a reduction of steady state levels; also recorded: inhibits primary nucleation of α-syn | delay of 1- 108 truncated α-syn aggregation |  | 
CC[C@@H](C)[C@@H](NC(=O)[C@@H](Cc1c[nH]cn1)NC(=O)[C@@H](CCC(=O)O)NC(=O)[C@@H](CCC(N)=O)NC(=O)[C@@H](Cc1c[nH]c2ccccc12)NC(=O)[C@@H](Cc1ccc(O)cc1)NC(=O)[C@H](NC(=O)[C@@H](CCC(=O)O)NC(=O)[C@@H](Cc1c[nH]cn1)NC(=O)[C@H](NC(=O)[C@H]1CCCN1C(=O)[C@@H](CC(C)C)NC(=O)[C@H](N)CCCNC(=N)N)[C@H](C)O)[C@H](C)O)C(=O)N[C@H](Cc1c[nH]c2ccccc12)C(=O)N[C@H](Cc1c[nH]cn1)C(=O)N[C@H](C)C(=O)N[C@H](CCCNC(=N)N)C(=O)N[C@H](CCCNC(=N)N)C(=O)N[C@H](CCCNC(=N)N)C(=O)N[C@H](CCCNC(=N)N)C(=O)N[C@H](CCCNC(=N)N)C(N)=O [SVD-1a] (H-[dR][dL][dP][dT][dH][dE][dT][dY][dW][dQ][dE][dH][dI][dW][dH][dA][dR][dR][dR][dR][dR]-NH2) |  | delay of 1- 108 truncated α-syn aggregation | completely inhibited | did not lead to precipitation of these species
